Assay results taken from US6737383B1, “Herbicidal oxadiazolidines” (priority 1999, dated 2004).

How the values were obtained:
sourgrass = experiment: Test D sourgrass; assay type: in vivo, Trichachne insularis; conditions: Preemergence, 0 to 100 scale
Excerpt: Seeds, tubers, or plant parts of Alexandergrass (Brachiaria plantaginea), bermuda-grass (Cynodon dactylon), common pursiane (Portulaca oleracea), common ragweed (Ambrosia elatior), common groundsel (Senecio vulgaris), dallisgrass (Paspalum dilatatum), goosegrass (Eleusine indica), guineagrass (Panicum maximum), itchgrass (Rottboellia exaltata), Johnson grass (Sorghum halepense), large crabgrass (Digitaria sanguinalis), pitted morningglory (Ipomoea lacunosa), purple nutsedge (Cyperus rotundus), sandbur (Cenchrus echinatus), sourgrass (Trichachne insularis), Spanishneedles (Bidens bipinnata), surinam grass (Brachiaria decumbens) and tall mallow (Malva sylvestris) were planted into greenhouse pots of flats containing greenhouse planting medium. Plant species were grown in separate pots or individual compartments. Preemergence applications were made within one day of planting the seed or plant part.
Test chemicals were formulated in a non-phytotoxic solvent mixture which included a surfactant and applied preemergence to the surface of the pot containing seeds in a sandy loam soil. Untreated control pots and treated pots were placed in the greenhouse for growth and visually evaluated for injury 14 to 21 days after herbicide application. Plant response ratings, summarized in Table C, are based on a 0 to 100 scale where 0 is no injury and 100 is complete control. A dash (−) response means no test result.

chickweed [1] = experiment: Test E chickweed; assay type: in vivo, Stellaria media; conditions: Preemergence
spring barley = experiment: Test E spring barley; assay type: in vivo, Hordeum vulgare; conditions: Postemergence
Experimental: (§1) Compounds evaluated in this test were formulated in a non-phytotoxic solvent mixture which included a surfactant and applied to plants that were in the 1- to 4-leaf stage (postemergence application). A mixture of sandy loam soil and greenhouse potting mix in a 60:40 ratio was used for the postemergence test.
(§2) Plantings of these crops and weed species were adjusted to produce plants of appropriate size for the postemergence test. All plant species were grown using normal greenhouse practices. Crop and weed species include annual bluegrass (Poa annua), blackgrass (Alopecurus myosuroides), black nightshade (Solanum nigra), chickweed (Stellaria media), common poppy (Papaver rhoeas), deadnettle (Lamium amplexicaule), downy brome (Bromus tectorum), field violet (Viola arvensis), galium (Galium aparine), green foxtail (Setaria viridis), Italian ryegrass (Lolium multiflorum), jointed goatgrass (Aegilops cylindrica), kochia (Kochia scoparia), lambsquarters (Chenopodium album), littleseed canarygrass (Phalaris minor), rape (Brassica napus), redroot pigweed (Amaranthus retroflexus), Russian thistle (Salsola kali), scentless chamomile (Matricaria inodora), spring barley (Hordeum vulgare), sugar beet (Beta vulgaris), sunflower (Helianthus annuus), ivyleaf speedwell (Veronica hederaefolia), spring wheat (Triticum aestivum), winter wheat (Triticum aestivum), wild buckwheat (Polygonum convolvulus), wild mustard (Sinapis arvensis), wild oat (Avena fatua), windgrass (Apera spica-venti) and winter barley (Hordeum vulgare).
(§3) Treated plants and untreated controls were maintained in a greenhouse for approximately 21 to 28 days, after which all treated plants were compared to untreated controls and visually evaluated. […] A dash response (-) means no test result.

chickweed [2] = experiment: Test E chickweed; assay type: in vivo, Stellaria media; conditions: Postemergence
Experimental: as §1, §2, §3

wild buckwheat [3] = experiment: Test E wild buckwheat; assay type: in vivo, Polygonum convolvulus; conditions: Postemergence
Method in brief: (§4)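 Compound formulated with surfactant in a non-phytotoxic solvent (postemergence: young 1- to 4-leaf plants); held in greenhouse approx. 21–28 days; visual assessment against untreated plants.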

scentless chamomile = experiment: Test E scentless chamomile; assay type: in vivo, Matricaria inodora; conditions: Preemergence
annual bluegrass = experiment: Test E annual bluegrass; assay type: in vivo, Poa annua; conditions: Postemergence
Method in brief: as §4

deadnettle = experiment: Test E deadnettle; assay type: in vivo, Lamium amplexicaule; conditions: Postemergence
Experimental: as §1, §2, §3

green foxtail = experiment: Test E green foxtail; assay type: in vivo, Setaria viridis; conditions: Postemergence
Method in brief: as §4

galium = experiment: Test E galium; assay type: in vivo, Galium aparine; conditions: Postemergence
Method in brief: as §4

winter barley = experiment: Test E winter barley; assay type: in vivo, Hordeum vulgare; conditions: Postemergence
Experimental: as §1, §2, §3

wild buckwheat [4] = experiment: Test E wild buckwheat; assay type: in vivo, Polygonum convolvulus; conditions: Preemergence
black nightshade = experiment: Test E black nightshade; assay type: in vivo, Solanum nigra; conditions: Postemergence
Experimental: as §1, §2, §3

wild mustard = experiment: Test E wild mustard; assay type: in vivo, Sinapis arvensis; conditions: Preemergence
windgrass = experiment: Test E windgrass; assay type: in vivo, Apera spica-venti; conditions: Postemergence, Rate 62 g/ha; 0 to 100 scale
Experimental: as §1
Plantings of these crops and weed species were adjusted to produce plants of appropriate size for the postemergence test. All plant species were grown using normal greenhouse practices. […]
Treated plants and untreated controls were maintained in a greenhouse for approximately 21 to 28 days, after which all treated plants were compared to untreated controls and visually evaluated. […]

Russian thistle = experiment: Test E Russian thistle; assay type: in vivo, Salsola kali; conditions: Postemergence
Method in brief: as §4

lambsquarters = experiment: Test E lambsquarters; assay type: in vivo, Chenopodium album; conditions: Postemergence
Method in brief: as §4

blackgrass = experiment: Test E blackgrass; assay type: in vivo, Alopecurus myosuroides; conditions: Postemergence
Experimental: as §1, §2, §3

rape = experiment: Test E rape; assay type: in vivo, Brassica napus; conditions: Postemergence
Method in brief: as §4

spring wheat = experiment: Test E spring wheat; assay type: in vivo, Triticum aestivum; conditions: Preemergence
[5] = Rate 62 g/ha, 0 to 100 scale, 0 no effect, 100 complete control
[6] = Rate 125 g/ha, 0 to 100 scale (0 no effect, 100 complete control)
[7] = Rate 250 g/ha, 0 to 100 scale (0 no effect, 100 complete control)

## Cc1ccccc1-n1c(=O)on(C(=O)N(c2ccc(F)cc2)C(C)C)c1=O [Compound 4]
sourgrass; Rate 16 g/ha, 0 no injury, 100 complete control
  Plant response rating, Sourgrass: 50
sourgrass; Rate 32 g/ha, 0 no injury, 100 complete control
  Plant response rating, Sourgrass: 65
sourgrass; Rate 64 g/ha, 0 no injury, 100 complete control
  Sourgrass plant response rating: 90
sourgrass; Rate 125 g/ha, 0 no injury, 100 complete control
  Sourgrass plant response rating: 100
sourgrass; Rate 250 g/ha
  Plant response rating, Sourgrass: 100
sourgrass; Rate 500 g/ha
  Plant response rating, Sourgrass: 100

## CCn1c(=O)on(C(=O)N(c2ccc(Cl)cc2)C(C)C)c1=O [Compound 108]
Chickweed [1]; [5]
  Plant response rating, Chickweed: 30
Chickweed [1]; [6]
  Plant response rating, Chickweed: 40
Chickweed [1]; Rate 250 g/ha, 0 to 100 scale
  Plant response rating, Chickweed: 30
Spring barley; Rate 62 g/ha, 0 to 100 scale
  Plant response rating, Spring Barley: 10
Spring barley; Rate 125 g/ha, 0 to 100 scale
  Plant response rating, Spring Barley: 20
Spring barley; [7]
  Plant response rating, Spring Barley: 25
Chickweed [2]; Rate 62 g/ha, 0 to 100 scale
  Plant response rating, Chickweed: 10
Chickweed [2]; Rate 125 g/ha, 0 to 100 scale
  Plant response rating, Chickweed: 0
Chickweed [2]; [7]
  Plant response rating, Chickweed: 0
Wild buckwheat [3]; Rate 62 g/ha, 0 to 100 scale
  Plant response rating, Wild buckwheat: 0
Wild buckwheat [3]; Rate 125 g/ha, 0 to 100 scale
  Plant response rating, Wild buckwheat: 20
Wild buckwheat [3]; [7]
  Plant response rating, Wild buckwheat: 10
Scentless chamomile; [5]
  Plant response rating, Scentless chamo: 50
Scentless chamomile; [6]
  Plant response rating, Scentless chamo: 60
Scentless chamomile; Rate 250 g/ha, 0 to 100 scale
  Plant response rating, Scentless chamo: 80
Annual bluegrass; Rate 62 g/ha, 0 to 100 scale
  Plant response rating, Annual bluegras: 0
Annual bluegrass; Rate 125 g/ha, 0 to 100 scale
  Plant response rating, Annual bluegras: 15
Annual bluegrass; [7]
  Plant response rating, Annual bluegras: 50
deadnettle; Rate 62 g/ha, 0 to 100 scale
  Plant response rating, Deadnettle: 10
deadnettle; Rate 125 g/ha, 0 to 100 scale
  Plant response rating, Deadnettle: 20
deadnettle; [7]
  Plant response rating, Deadnettle: 30
Green foxtail; Rate 62 g/ha, 0 to 100 scale
  Plant response rating, Green foxtail: 10
Green foxtail; Rate 125 g/ha, 0 to 100 scale
  Plant response rating, Green foxtail: 15
Green foxtail; [7]
  Plant response rating, Green foxtail: 75
galium; Rate 62 g/ha, 0 to 100 scale
  Plant response rating, Galium: 0
galium; Rate 125 g/ha, 0 to 100 scale
  Plant response rating, Galium: 10
galium; [7]
  Plant response rating, Galium: 50
Winter barley; Rate 62 g/ha, 0 to 100 scale
  Plant response rating, Barley (winter): 10
Winter barley; Rate 125 g/ha, 0 to 100 scale
  Plant response rating, Barley (winter): 10
Winter barley; [7]
  Plant response rating, Barley (winter): 15
Wild buckwheat [4]; [5]
  Plant response rating, Wild buckwheat: 60
Wild buckwheat [4]; [6]
  Plant response rating, Wild buckwheat: 100
Wild buckwheat [4]; Rate 250 g/ha, 0 to 100 scale
  Plant response rating, Wild buckwheat: 80
Black nightshade; Rate 62 g/ha, 0 to 100 scale
  Plant response rating, Blk nightshade: 20
Black nightshade; Rate 125 g/ha, 0 to 100 scale
  Plant response rating, Blk nightshade: 30
Black nightshade; [7]
  Plant response rating, Blk nightshade: 50
Wild mustard; [5]
  Plant response rating, Wild mustard: 50
Wild mustard; [6]
  Plant response rating, Wild mustard: 90
Wild mustard; Rate 250 g/ha, 0 to 100 scale
  Plant response rating, Wild mustard: 65
windgrass
  Plant response rating, Windgrass: 80
Russian thistle; Rate 62 g/ha, 0 to 100 scale
  Plant response rating, Russian thistle: 0
Russian thistle; Rate 125 g/ha, 0 to 100 scale
  Plant response rating, Russian thistle: 0
Russian thistle; [7]
  Plant response rating, Russian thistle: 0
lambsquarters; Rate 62 g/ha, 0 to 100 scale
  Plant response rating, Lambsquarters: 10
lambsquarters; Rate 125 g/ha, 0 to 100 scale
  Plant response rating, Lambsquarters: 20
lambsquarters; [7]
  Plant response rating, Lambsquarters: 20
blackgrass; Rate 62 g/ha, 0 to 100 scale
  Plant response rating, Blackgrass: 5
blackgrass; Rate 125 g/ha, 0 to 100 scale
  Plant response rating, Blackgrass: 5
blackgrass; [7]
  Plant response rating, Blackgrass: 10
rape; Rate 62 g/ha, 0 to 100 scale
  Plant response rating, Rape: 60
rape; Rate 125 g/ha, 0 to 100 scale
  Plant response rating, Rape: 40
rape; [7]
  Plant response rating, Rape: 50
Spring wheat; [5]
  Plant response rating, Spring Wheat: 10
Spring wheat; [6]
  Plant response rating, Spring Wheat: 20
Spring wheat; Rate 250 g/ha, 0 to 100 scale
  Plant response rating, Spring Wheat: 30

## C=CCn1c(=O)on(C(=O)N(c2ccccc2)C(C)C)c1=O [Compound 93]
Chickweed [1]; [5]
  Plant response rating, Chickweed: 60
Chickweed [1]; [6]
  Plant response rating, Chickweed: 20
Chickweed [1]; Rate 250 g/ha, 0 to 100 scale
  Plant response rating, Chickweed: 100
Spring barley; Rate 62 g/ha, 0 to 100 scale
  Plant response rating, Spring Barley: 0
Spring barley; Rate 125 g/ha, 0 to 100 scale
  Plant response rating, Spring Barley: 0
Spring barley; [7]
  Plant response rating, Spring Barley: 0
Chickweed [2]; Rate 62 g/ha, 0 to 100 scale
  Plant response rating, Chickweed: 0
Chickweed [2]; Rate 125 g/ha, 0 to 100 scale
  Plant response rating, Chickweed: 0
Chickweed [2]; [7]
  Plant response rating, Chickweed: 0
Wild buckwheat [3]; Rate 62 g/ha, 0 to 100 scale
  Plant response rating, Wild buckwheat: 0
Wild buckwheat [3]; Rate 125 g/ha, 0 to 100 scale
  Plant response rating, Wild buckwheat: 0
Wild buckwheat [3]; [7]
  Plant response rating, Wild buckwheat: 0
Annual bluegrass; Rate 62 g/ha, 0 to 100 scale
  Plant response rating, Annual bluegras: 20
Annual bluegrass; Rate 125 g/ha, 0 to 100 scale
  Plant response rating, Annual bluegras: 20
Annual bluegrass; [7]
  Plant response rating, Annual bluegras: 50
deadnettle; Rate 62 g/ha, 0 to 100 scale
  Plant response rating, Deadnettle: 0
deadnettle; Rate 125 g/ha, 0 to 100 scale
  Plant response rating, Deadnettle: 0
deadnettle; [7]
  Plant response rating, Deadnettle: 0
Green foxtail; Rate 62 g/ha, 0 to 100 scale
  Plant response rating, Green foxtail: 0
Green foxtail; Rate 125 g/ha, 0 to 100 scale
  Plant response rating, Green foxtail: 0
Green foxtail; [7]
  Plant response rating, Green foxtail: 0
galium; Rate 62 g/ha, 0 to 100 scale
  Plant response rating, Galium: 0
galium; Rate 125 g/ha, 0 to 100 scale
  Plant response rating, Galium: 0
galium; [7]
  Plant response rating, Galium: 0
Winter barley; Rate 62 g/ha, 0 to 100 scale
  Plant response rating, Barley (winter): 0
Winter barley; Rate 125 g/ha, 0 to 100 scale
  Plant response rating, Barley (winter): 0
Winter barley; [7]
  Plant response rating, Barley (winter): 0
Wild buckwheat [4]; [5]
  Plant response rating, Wild buckwheat: 30
Wild buckwheat [4]; [6]
  Plant response rating, Wild buckwheat: 30
Wild buckwheat [4]; Rate 250 g/ha, 0 to 100 scale
  Plant response rating, Wild buckwheat: 40
Black nightshade; Rate 62 g/ha, 0 to 100 scale
  Plant response rating, Blk nightshade: 0
Black nightshade; Rate 125 g/ha, 0 to 100 scale
  Plant response rating, Blk nightshade: 0
Black nightshade; [7]
  Plant response rating, Blk nightshade: 50
Wild mustard; [5]
  Plant response rating, Wild mustard: 30
Wild mustard; [6]
  Plant response rating, Wild mustard: 65
Wild mustard; Rate 250 g/ha, 0 to 100 scale
  Plant response rating, Wild mustard: 80
windgrass
  Plant response rating, Windgrass: 60
Russian thistle; Rate 62 g/ha, 0 to 100 scale
  Plant response rating, Russian thistle: 0
Russian thistle; Rate 125 g/ha, 0 to 100 scale
  Plant response rating, Russian thistle: 0
Russian thistle; [7]
  Plant response rating, Russian thistle: 0
lambsquarters; Rate 62 g/ha, 0 to 100 scale
  Plant response rating, Lambsquarters: 0
lambsquarters; Rate 125 g/ha, 0 to 100 scale
  Plant response rating, Lambsquarters: 0
lambsquarters; [7]
  Plant response rating, Lambsquarters: 0
blackgrass; Rate 62 g/ha, 0 to 100 scale
  Plant response rating, Blackgrass: 10
blackgrass; Rate 125 g/ha, 0 to 100 scale
  Plant response rating, Blackgrass: 30
blackgrass; [7]
  Plant response rating, Blackgrass: 40
rape; Rate 62 g/ha, 0 to 100 scale
  Plant response rating, Rape: 0
rape; Rate 125 g/ha, 0 to 100 scale
  Plant response rating, Rape: 0
rape; [7]
  Plant response rating, Rape: 0
Spring wheat; [5]
  Plant response rating, Spring Wheat: 30
Spring wheat; [6]
  Plant response rating, Spring Wheat: 50
Spring wheat; Rate 250 g/ha, 0 to 100 scale
  Plant response rating, Spring Wheat: 80
